Earlier results on 2 molecules are cited in article PMC3048208 (British Journal of Cancer, 2011).

On the set-up of this series: method as in Kelly et al, 2005; Steele et al, 2008. Particulars: ref Kelly et al, 2005; Steele et al, 2008; cited from earlier work.

With `O=C(CCCCCCC(=O)Nc1ccccc1)NO` [vorinostat, suberoylanilide hydroxamic acid], the half-life – broadly, how long it takes for the measured level to halve – was 1 to 2 h.
As for `O=C(/C=C/c1cccc(S(=O)(=O)Nc2ccccc2)c1)NO` [belinostat], the half-life is 1 to 2 h.
